Results on three compounds are retold here after article PMC3843727, “Isolation and Functional Characterization of Calcitonin-Like Diuretic Hormone Receptors in Rhodnius prolixus” (PLoS ONE, 2013).

Ends that are not written are not given here.

For one assay, the system named is Rhopr-CT/DH-R1-B. Nature of the assay: Bioluminescence (calcium mobilization) assay, HEK293/CNG cells expressing Rhopr-CT/DH-R1-B. The class given is cell-based, R. prolixus. Particulars: luminescence. An excerpt: (§1) The largest cDNA fragments encoding Rhopr-CT/DH-R1 transcript variants and Rhopr-CT/DH-R2-B were amplified as described earlier (see section: Isolation of cDNA sequences encoding R. prolixus CT/DH receptors). The PCR products from these reactions were used as a template to amplify the ORF and introduce a Kozak translation initiation sequence at the 5´ end using the primers listed in Table S5 in File S1. The resulting products were cloned into pGEM-T Easy vector (Promega, Madison, WI, USA). These were then subcloned into either pIRES2-ZsGreen1 (Clontech, Mountain View, CA, USA) or pcDNA 3.1^+ (Life Technologies Corporation, Carlsbad, CA, USA) for expression in mammalian cells.
(§2) Human embryonic kidney (HEK)-293 cells stably expressing a modified cyclic nucleotide-gated (CNG) channel (HEK293/CNG) (previously available through BD Biosciences, Mississauga, ON, Canada) were used to functionally characterize the receptors. […]
(§3) Bioluminescence assay using CHO/G16 cells was performed as described previously. […] Cells were loaded in each well using an automated injector and the luminescence recorded over 20 seconds using a Wallac Victor2 plate reader (Perkin Elmer, San Diego, CA, USA). […] Dose-response curves were obtained and the EC50 values determined using Prism5 software.
(Calcium assays in cells follow changes in intracellular calcium, usually with a dye or a luminescent sensor.)

The test system of another assay is Rhopr-CT/DH-R1-C. The experiment in a line: Bioluminescence (calcium mobilization) assay, HEK293/CNG cells expressing Rhopr-CT/DH-R1-C. The class given is cell-based, R. prolixus. The conditions noted are these: luminescence.
Source text: as §1, §2, §3

A further assay has as its system Rhopr-CT/DH-R2-B. The experiment in a line: Bioluminescence (calcium mobilization) assay, HEK293/CNG cells expressing Rhopr-CT/DH-R2-B. It is filed as cell-based, R. prolixus. Particulars: luminescence.
Source text: as §1, §2, §3

Another assay relates to Malpighian tubules. The conditions noted are these: reference stimulant; cited from earlier work.

On to “MQRPQGPSLSVANPIEVLRSRLLLEIARRRMKEQDASRVSKNRQYLQQI-NH2 [Rhopr-CRF/DH, R. prolixus corticotropin releasing-factor (CRF)-related diuretic hormone, custom synthesised by GenScript at > 95% purity]”, for which the receptor activation result with Rhopr-CT/DH-R1-B, in the assay on Rhopr-CT/DH-R1-C and with Rhopr-CT/DH-R2-B was “None of these receptors were activated” in each case. Besides, in the assay on Malpighian tubules, the “rate of fluid secretion by MTs” value is on record as “maximum rate”.

Take `NCCc1c[nH]c2ccc(O)cc12` [serotonin]: the “rate of fluid secretion by MTs” value in the assay on Malpighian tubules is reported as “maximum rate”.

For the compound “NSELINSLLSLPKNMNDA-NH2 [Drome-PDF, D. melanogaster pigment dispersing factor, custom synthesized by GeneMed Synthesis at > 95% purity]”, the receptor activation result in the assay with Rhopr-CT/DH-R1-B, in the assay on Rhopr-CT/DH-R1-C and with Rhopr-CT/DH-R2-B was “None of these receptors were activated” each time.
